Results: US20250282728A1, “NITROGEN COMPRISING HETEROCYCLIC DERIVATIVES FOR THE TREATMENT OF DISORDERS ASSOCIATED WITH GPR55 RECEPTOR” (Cerevance, Inc., priority 2022, published 2025)

Molecular target: T1, rat GPR55 (Rattus norvegicus, UniProt F1MAK4)
T1 construct: expressed in transfected cells; host or cells: HEK293 (human embryonic kidney) cells
T1 sequence (F1MAK4 1-319): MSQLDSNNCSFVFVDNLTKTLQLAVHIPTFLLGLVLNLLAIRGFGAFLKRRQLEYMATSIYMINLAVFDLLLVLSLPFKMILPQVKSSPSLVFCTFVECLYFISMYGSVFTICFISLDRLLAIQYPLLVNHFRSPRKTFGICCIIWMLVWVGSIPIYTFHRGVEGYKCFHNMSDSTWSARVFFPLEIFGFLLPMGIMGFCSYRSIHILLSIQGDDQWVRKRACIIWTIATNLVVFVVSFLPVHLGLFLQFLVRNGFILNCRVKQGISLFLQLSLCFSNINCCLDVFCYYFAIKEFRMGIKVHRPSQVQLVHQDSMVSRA
Experiment: Ca2+ mobilization assay (FLIPR, Calcium5 dye), rat GPR55
Type: cell-based
Details: HEK293 cells co-expressing PK-tagged rat GPR55 and EA-tagged beta-arrestin; intracellular calcium increase
Experimental: (§1) This cell-based assay measures the ability of compounds to activate the GPR55 receptor by measuring changes in intracellular calcium levels. HEK293 (human embryonic kidney) cells co-expressing recombinant ProLink (PK) tagged human or rat GPR55 and Enzyme Acceptor (EA) tagged beta-arrestin were seeded into PDL-coated, black-walled clear-bottom 384 well plates in assay buffer (25 mM HEPES, HBSS, 1 mM Probenicid, 0.1% BSA, pH 7.4) containing Calcium5 dye (Molecular Devices). Cells were incubated in suspension with the Calcium5 dye for 1 hour at 37° C., 5% CO2. Dilution series of the compounds in assay buffer were added to the cells in duplicate wells and compound-mediated real-time increases in intracellular calcium concentration were recorded as increased fluorescence using the Molecular Devices FLIPR instrument. Kinetic traces were reduced to a numerical value by subtracting the minimum response from the maximum response.

SMILES	EC50
C[C@@H](Nc1ncc(-c2ccc3ncn(C)c3c2)nn1)c1ccc(F)cc1 [Example 81, (R)-N-(1-(4-fluorophenyl)ethyl)-6-(1-methyl-1H-benzo[d]imidazol-6-yl)-1,2,4-triazin-3-amine]	≤ 5 µM
C[C@@H](Nc1ncc(-c2ccc3oc(=O)n(C)c3c2)nn1)c1ccc(F)cc1 [Example 64, (R)-5-(3-((1-(4-fluorophenyl)ethyl)amino)-1,2,4-triazin-6-yl)-3-methylbenzo[d]oxazol-2(3H)-one]	≤ 0.2 µM
C[C@@H](Nc1ccc(-c2cncc(S(C)(=N)=O)c2)cn1)c1ccc(F)cc1 (mixture of isomers) [Example 27, (6′-(((R)-1-(4-fluorophenyl)ethyl)amino)-[3,3′-bipyridin]-5-yl)(imino)(methyl)-λ^6-sulfanone]	≤ 0.05 µM
CCc1cncc(-c2ccc(N[C@H](C)c3ccc(F)cc3)nc2)c1 [Example 4, (R)-5′-ethyl-N-(1-(4-fluorophenyl)ethyl)-[3,3′-bipyridin]-6-amine]	≤ 1 µM
C[C@@H](Nc1ccc(-c2ccc3oc(=O)n(C)c3c2)cn1)c1ccc(F)cc1 [Example 60, (R)-5-(6-((1-(4-fluorophenyl)ethyl)amino)pyridin-3-yl)-3-methylbenzo[d]oxazol-2(3H)-one]	≤ 1 µM
Cc1cncc(-c2ccc(NC(C)c3ccc(F)cc3)nc2)c1 (stereo not shown) [Example 1, N-(1-(4-fluorophenyl)ethyl)-5′-methyl-[3,3′-bipyridin]-6-amine]	≤ 5 µM
C[C@@H](Nc1ccc(-c2cncc(C(F)(F)F)c2)cn1)c1ccc(F)cc1 [Example 8, (R)-N-(1-(4-fluorophenyl)ethyl)-5′-(trifluoromethyl)-[3,3′-bipyridin]-6-amine]	≤ 0.05 µM
Cc1cncc(-c2ccc(N[C@H](C)c3ccc(F)cc3)nc2)c1 [Example 3, (R)-N-(1-(4-fluorophenyl)ethyl)-5′-methyl-[3,3′-bipyridin]-6-amine]	≤ 0.05 µM
C[C@@H](Nc1ncc(-c2cncc(S(C)(=O)=O)c2)cn1)c1ccc(F)cc1 [Example 25, (R)-N-(1-(4-fluorophenyl)ethyl)-5-(5-(methylsulfonyl)pyridin-3-yl)pyrimidin-2-amine]	≤ 5 µM
C[C@@H](Nc1ncc(-c2cncc(CC(F)(F)F)c2)nn1)c1ccc(F)cc1 [Example 55, (R)-N-(1-(4-fluorophenyl)ethyl)-6-(5-(2,2,2-trifluoroethyl)pyridin-3-yl)-1,2,4-triazin-3-amine]	≤ 5 µM
C[C@@H](Nc1cnc(-c2cncc(CC(F)(F)F)c2)cn1)c1ccc(F)cc1 [Example 53, (R)-N-(1-(4-fluorophenyl)ethyl)-5-(5-(2,2,2-trifluoroethyl)pyridin-3-yl)pyrazin-2-amine]	≤ 5 µM
CN=S(C)(=O)c1cncc(-c2ccc(N[C@H](C)c3ccc(F)cc3)nc2)c1 (mixture of isomers) [Example 30, (6′-(((R)-1-(4-fluorophenyl)ethyl)amino)-[3,3′-bipyridin]-5-yl)(methyl)(methylimino)-λ6-sulfanone]	≤ 0.05 µM

More lines, now with the values ahead:

EC50	SMILES
≤ 5 µM	CC(Nc1cc(F)c(-c2cncc(S(C)(=O)=O)c2)cn1)c1ccc(F)cc1 (single isomer, unassigned) [Example 29b, 4-fluoro-N-(1-(4-fluorophenyl)ethyl)-5′-(methylsulfonyl)-[3,3′-bipyridin]-6-amine]
≤ 1 µM	CN=S(C)(=O)c1cncc(-c2ccc(N[C@H](C)c3ccc(F)cc3)nc2)c1 (single isomer, unassigned) [Example 30b]
≤ 0.05 µM	CN=S(C)(=O)c1cncc(-c2ccc(N[C@H](C)c3ccc(F)cc3)nc2)c1 (single isomer, unassigned) [Example 30a]
≤ 1 µM	C[C@@H](Nc1ccc(-c2cncc(S(C)(=N)=O)c2)cn1)c1ccc(F)cc1 (single isomer, unassigned) [Example 27b]
≤ 0.2 µM	C[C@@H](Nc1ccc(-c2cncc(S(C)(=N)=O)c2)cn1)c1ccc(F)cc1 (single isomer, unassigned) [Example 27a]

Molecular target: T2, human GPR55 (Homo sapiens, UniProt Q9Y2T6)
T2 construct: expressed in transfected cells; host or cells: HEK293 (human embryonic kidney) cells
T2 sequence (Q9Y2T6 whole entry): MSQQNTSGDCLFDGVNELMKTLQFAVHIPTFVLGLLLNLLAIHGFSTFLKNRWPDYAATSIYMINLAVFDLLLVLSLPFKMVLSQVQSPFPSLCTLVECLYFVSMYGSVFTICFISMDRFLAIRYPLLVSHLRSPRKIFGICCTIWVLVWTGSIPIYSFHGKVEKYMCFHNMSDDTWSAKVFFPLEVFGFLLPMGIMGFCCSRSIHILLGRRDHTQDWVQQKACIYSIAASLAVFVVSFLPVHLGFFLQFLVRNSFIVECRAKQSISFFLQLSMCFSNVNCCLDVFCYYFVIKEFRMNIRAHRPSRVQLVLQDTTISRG
Experiment: Ca2+ mobilization assay (FLIPR, Calcium5 dye), human GPR55
Type: cell-based
Details: HEK293 cells co-expressing PK-tagged human GPR55 and EA-tagged beta-arrestin; intracellular calcium increase
Experimental: as §1

EC50	SMILES
≤ 1 µM	C[C@@H](Nc1ncc(-c2ccc3ncn(C)c3c2)nn1)c1ccc(F)cc1 [Example 81, (R)-N-(1-(4-fluorophenyl)ethyl)-6-(1-methyl-1H-benzo[d]imidazol-6-yl)-1,2,4-triazin-3-amine]
≤ 1 µM	CC(Nc1cc(F)c(-c2cncc(S(C)(=O)=O)c2)cn1)c1ccc(F)cc1 (single isomer, unassigned) [Example 29b, 4-fluoro-N-(1-(4-fluorophenyl)ethyl)-5′-(methylsulfonyl)-[3,3′-bipyridin]-6-amine]
